Test results taken from ChEMBL document CHEMBL2401623, “Synthesis and antitumor activity of novel 3,4-diaryl squaric acid analogs” (Eur J Med Chem, 2013).
Active and inactive are the calls of the source. The calls are words filed in the database; no cut-off is given here.

Columns and labels:
MCF7 [1] = test: Ratio of combretastatin A-4 IC50 to compound IC50 for human MCF7 cells; assay type: functional
MCF7 [2] = test: Cell cycle arrest in human MCF7 cells assessed as accumulation at G2/M phase at 0.02 uM after 24 hrs by propidium iodide staining-based flow cytometric analysis; assay type: functional
HCT-116 = test: Cytotoxicity against human HCT116 cells assessed as growth inhibition after 72 hrs by MTT assay; assay type: functional, cell-based; conditions: HCT-116, 72 h
Bel-7402 [3] = test: Ratio of combretastatin A-4 IC50 to compound IC50 for human Bel7402 cells; assay type: functional
SW1990 = test: Cytotoxicity against human SW1990 cells assessed as growth inhibition after 72 hrs by MTT assay; assay type: functional, cell-based; conditions: SW1990, 72 h
MCF7 [4] = test: Cytotoxicity against human MCF7 cells assessed as growth inhibition after 72 hrs by MTT assay; assay type: functional, cell-based; conditions: MCF7, 72 h
HepG2 = test: Cytotoxicity against human HepG2 cells assessed as growth inhibition after 72 hrs by MTT assay; assay type: functional, cell-based; conditions: HepG2, 72 h
SMMC-7721 = test: Cytotoxicity against human SMMC7721 cells assessed as growth inhibition after 72 hrs by MTT assay; assay type: functional, cell-based; conditions: SMMC-7721, 72 h
CCRF-CEM = test: Cytotoxicity against human CEM cells assessed as growth inhibition after 72 hrs by MTT assay; assay type: functional, cell-based
Bel-7402 [5] = test: Cytotoxicity against human Bel7402 cells assessed as growth inhibition after 72 hrs by MTT assay; assay type: functional, cell-based; conditions: Bel-7402, 72 h
MCF7 [6] = test: Cell cycle arrest in human MCF7 cells assessed as accumulation at G2/M phase after 24 hrs by propidium iodide staining-based flow cytometric analysis; assay type: functional

In the case of COc1ccc(-c2c(-c3cc(OC)c(OC)c(OC)c3)c(=O)c2=O)cc1O, the “Ratio IC50” value (MCF7 [1]) is reported as 5, the Activity (MCF7 [2]) is reported as “Active” and the IC50 (HCT-116) is reported as 0.005 µM. The “Ratio IC50” value (Bel-7402 [3]) was 5, the IC50 (SW1990) was 0.245 µM and the IC50 (MCF7 [4]) was 0.006 µM. It also gave an IC50 (HepG2) of 0.014 µM, an IC50 (SMMC-7721) of 1.52 µM and an IC50 (CCRF-CEM) of 0.0017 µM. The IC50 (Bel-7402 [5]) was 0.309 µM.
COc1cc(-c2c(-c3ccc4cc[nH]c4c3)c(=O)c2=O)cc(OC)c1OC gave an IC50 (HepG2) of 0.006 µM, an IC50 (SMMC-7721) of 2.54 µM and an IC50 (CCRF-CEM) of 0.0066 µM. The IC50 (Bel-7402 [5]) was 3.62 µM.
In the case of COc1ccc(-c2c(-c3cc(OC)c(OC)c(OC)c3)c(=O)c2=O)cc1OC, the IC50 (CCRF-CEM) is reported as 0.21 µM.
COc1cc(-c2c(-c3ccc4[nH]ccc4c3)c(=O)c2=O)cc(OC)c1OC gave an IC50 (HepG2) of 0.006 µM, an IC50 (SMMC-7721) of 0.646 µM and an IC50 (CCRF-CEM) of 0.0154 µM. For the same compound, the IC50 (Bel-7402 [5]) was 1.5 µM.
With COc1ccc(-c2c(-c3ccc(OC)c(OC)c3)c(=O)c2=O)cc1 the IC50 (CCRF-CEM) was 12.7 µM.
For COc1ccc(/C=C\c2cc(OC)c(OC)c(OC)c2)cc1O [COMBRETASTATIN A4], the IC50 (MCF7 [4]) was 0.029 µM and the IC50 (CCRF-CEM) was 0.0016 µM.
With COc1ccc(-c2c(-c3ccc(OC)cc3)c(=O)c2=O)cc1 the IC50 (CCRF-CEM) was greater than 20 µM.
COc1cc(-c2c(-c3ccccc3)c(=O)c2=O)cc(OC)c1OC was tested, and the IC50 (CCRF-CEM) was 16.1 µM.
COc1cc(-c2c(-c3cc(OC)c(OC)c(OC)c3)c(=O)c2=O)cc(OC)c1OC gave an IC50 (CCRF-CEM) greater than 20 µM.
COc1ccc(-c2c(-c3cc(OC)c(OC)c(OC)c3)c(=O)c2=O)cc1OC(C)=O showed an IC50 (CCRF-CEM) of 0.0018 µM.
COc1ccc(-c2c(-c3ccc(OC)cc3OC)c(=O)c2=O)cc1 gave an IC50 (CCRF-CEM) of 1.51 µM.
Compound COc1ccc(-c2c(-c3cc(OC)c(OC)c(OC)c3)c(=O)c2=O)cc1 has an IC50 (CCRF-CEM) of 0.016 µM.
COc1ccc(-c2c(-c3cc(OC)c(OC)c(OC)c3)c(=O)c2=O)cc1[N+](=O)[O-] was tested, and the IC50 (CCRF-CEM) was 12.2 µM.
In the case of COc1ccc(-c2c(-c3cc(OC)c(OC)c(OC)c3)c(=O)c2=O)cc1N, the Activity (MCF7 [6]) is reported as “Active”, the IC50 (HCT-116) is reported as 0.005 µM and the “Ratio IC50” value (Bel-7402 [3]) is reported as 122. For the same compound, the IC50 (SW1990) was 1.77 µM, the IC50 (MCF7 [4]) was 0.164 µM and the IC50 (HepG2) was 0.005 µM. For the same compound, the IC50 (SMMC-7721) was 0.19 µM, the IC50 (CCRF-CEM) was 0.0014 µM and the IC50 (Bel-7402 [5]) was 0.014 µM.
For COc1ccc(-c2c(-c3c(OC)cc(OC)cc3OC)c(=O)c2=O)cc1, the IC50 (CCRF-CEM) was 0.85 µM.
For COc1ccc(-c2c(-c3cc(OC)c(OC)c(OC)c3)c(=O)c2=O)cc1Cl, the IC50 (CCRF-CEM) was 0.136 µM.
COc1ccc(-c2c(-c3ccc(OC)c(OC)c3OC)c(=O)c2=O)cc1 gave an IC50 (CCRF-CEM) of 2.48 µM.
For COc1ccc(-c2c(-c3cc(OC)c(OC)c(OC)c3)c(=O)c2=O)cc1F, the IC50 (HCT-116) was 0.081 µM, the IC50 (SW1990) was 0.027 µM and the IC50 (MCF7 [4]) was 0.005 µM. The IC50 (HepG2) was 0.105 µM, the IC50 (SMMC-7721) was 0.176 µM and the IC50 (CCRF-CEM) was 0.0115 µM. For the same compound, the IC50 (Bel-7402 [5]) was 0.013 µM.
COc1ccc(-c2c(-c3cc(OC)c(OC)c(OC)c3)c(=O)c2=O)c(OC)c1 gave an IC50 (CCRF-CEM) of 1.77 µM.
